Laboratory results: US11590117B2, “Treatment of a hematologic malignancy with 2-(4-chlorophenyl)-n-((2-(2,6-dioxopiperidin-3-yl)-1-oxoisoindolin-5-yl)methyl)-2,2-difluoroacetamide” (priority 2016, dated 2023)

Key:
[1] = system: HL-60 human AML cells; experiment: HL-60 IV AML xenograft model, survival study; assay type: in vivo, SCID mice; details: positive control; p<0.05 vs vehicle
Protocol: In this study, Compound 1 antitumor activity in the HL-60 IV AML xenograft model was studies. In this model, HL-60 human AML cells engraft in host BM and internal organs (eg, spleen, liver) and animals develop progressive peripheral leukocytosis. Female severe combined immunodeficiency (SCID) mice were inoculated with HL-60 cells by tail vein injection. To understand the effect of Compound 1 on the xenografted HL-60 cells, animals were dosed intraperitoneal (IP) with vehicle or Compound 1 (0.5, 1, 2.5, and 5 mg/kg) once daily (QD)×5 between Weeks 3 and 4 post-engraftment (AP6516, survival study) or animals were dosed IP twice daily (BID) with vehicle or Compound 1 for 5 or 10 consecutive days (5 mg/kg BID×5 or 2.5 mg/kg, BID×10) between Weeks 6 and 8 post-engraftment (Study AP6982, % human CD33+[hCD33+] cells in BM).
Tumor burden from the peripheral blood of HL-60-bearing animals was assessed by fluorescence-activated cell sorting (FACS) at Week 7 post-tumor cell inoculation. […] Mice from the vehicle control and Compound 1 treatment groups succumbed to disease burden starting on Day 54 for the vehicle control group and between Day 51 and Day 57 for the Compound 1 treatment groups. […] One mouse (1/8) from the 2.5 mg/kg Compound 1-treated group survived to study termination on Day 162.

[2] = Dynamic vapor sorption (DVS) analysis; assay type: physicochemical; details: relative humidity increased from about 0% to about 90% RH
Protocol: In certain embodiments, Form A is characterized by dynamic vapor sorption analysis. […] In certain embodiments, Form A comprises less than 0.1% water as determined in a coulometric Karl Fischer (KF) titrator equipped with an oven sample processor set at 225° C.
In certain embodiments, Form B is characterized by dynamic vapor sorption analysis. […] In certain embodiments, Form B comprises less than 0.1% water as determined in a coulometric Karl Fischer (KF) titrator equipped with an oven sample processor set at 225° C.
In certain embodiments, Form C is characterized by dynamic vapor sorption analysis. […] In certain embodiments, Form C comprises less than 0.1% water as determined in a coulometric Karl Fischer (KF) titrator equipped with an oven sample processor set at 225° C.

[3] = assay type: physicochemical
Text: In certain embodiments, the compound for use in the methods is an anhydrous Form C of 2-(4-chlorophenyl)-N-((2-(2,6-dioxopiperidin-3-yl)-1-oxoisoindolin-5-yl)methyl)-2,2-difluoroacetamide.
In certain embodiments, Form C is obtained by slurrying 2-(4-chlorophenyl)-N-((2-(2,6-dioxopiperidin-3-yl)-1-oxoisoindolin-5-yl)methyl)-2,2-difluoroacetamide in certain solvent systems, for example, solvent systems comprising one or more of the following solvents: acetonitril/water, acetone, or ethanol/water for extended period of time.

Row | SMILES | median survival [1] [days] | water uptake (DVS) [2] | thermodynamic stability among the crystal forms [3]
1 | Nc1nc(F)nc2c1ncn2[C@@H]1O[C@H](CO)[C@@H](O)[C@@H]1O [fludarabine, reference compound] | 76 |  | 
2 | O=C1CCC(N2Cc3cc(CNC(=O)C(F)(F)c4ccc(Cl)cc4)ccc3C2=O)C(=O)N1 (centres unmarked) [Form A, 2-(4-chlorophenyl)-N-((2-(2,6-dioxopiperidin-3-yl)-1-oxoisoindolin-5-yl)methyl)-2,2-difluoroacetamide] |  | about 1.2 % w/w | 
3 | O=C1CCC(N2Cc3cc(CNC(=O)C(F)(F)c4ccc(Cl)cc4)ccc3C2=O)C(=O)N1 (centres unmarked) [Form C, 2-(4-chlorophenyl)-N-((2-(2,6-dioxopiperidin-3-yl)-1-oxoisoindolin-5-yl)methyl)-2,2-difluoroacetamide] |  | about 0.6 % w/w | most thermodynamically stable anhydrate
4 | O=C1CCC(N2Cc3cc(CNC(=O)C(F)(F)c4ccc(Cl)cc4)ccc3C2=O)C(=O)N1 (centres unmarked) [Form B, 2-(4-chlorophenyl)-N-((2-(2,6-dioxopiperidin-3-yl)-1-oxoisoindolin-5-yl)methyl)-2,2-difluoroacetamide] |  | about 1.4 % w/w | 
